From patent US20260365670A1, “EGFR INHIBITORS AND USES THEREOF” (DIZAL (JIANGSU) PHARMACEUTICAL CO., LTD., priority 2022, published 2026)
Where two headings read alike, the source gives them in different places.

Experiments:
EGFR[T790M/C797S/L858R] = biological target: T1, EGFR[T790M/C797S/L858R] (Homo sapiens, UniProt P00533, C797S/L858R/T790M); experiment: Inhibition of EGFR[T790M/C797S/L858R] biochemical enzymatic activity (HTRF); conditions: EGFR[T790M/C797S/L858R], 1 mM ATP, 1 h at room temperature, read-out: IC50 @T790M- C797S - L858R
T1 construct: purchased Carna Bio
Description: (§1) Biological Example 1: Inhibition of EGFR WT and Mutant Biochemical Enzymatic Activity
(§2) The inhibition potency of compounds against these enzymes was assessed using Homogenous Time Resolved Fluorescence approach (HTRF, CisBio. Cat No. 62TKOPEJ).
(§3) Inhibitory effects of the compounds were determined by measuring the enzymatic activity of EGFR enzyme phosphorylates 1 μM TK Substrate-biotin in the presence of 1 mM adenosine-5′-triphosphate (ATP) and varying concentrations of the test compound. The enzyme reaction buffer contains 5 mM MgCl2, 1 mM MnC12, 0.01% CHAPS, 1 mM dithiothreitol (DTT), 0.5% dimethylsulfoxide (DMSO), and 1× supplemented enzymatic buffer. The WT and mutant EGFR enzymes (SignalChem) were added to plates containing inhibitors, followed by activation of the kinase reaction by addition of ATP and peptide substrates. After incubation for 1 h at room temperature, the reaction was stopped by the addition of the detection reagent mix containing EDTA. The fluorescence was measured at 615 nm and 665 nm, respectively with excitation wavelength at 320 nm. The calculated signal ratio of 665 nm/615 nm is proportional to the kinase activity. The concentration of compound producing 50% inhibition of the respective kinase (IC50) was calculated using four-parameter logistic fit with XL-FIT.

EGFR (C797S L858R) = biological target: T2, EGFR (C797S L858R) (Homo sapiens, UniProt P00533, C797S/L858R); experiment: Inhibition of EGFR (C797S L858R) biochemical enzymatic activity (HTRF); conditions: EGFR (C797S L858R), 1 mM ATP, 1 h at room temperature, read-out: IC50 @L858-C797S
T2 construct: purchased signalchem
T2 sequence (P00533 25-1210 C797S/L858R): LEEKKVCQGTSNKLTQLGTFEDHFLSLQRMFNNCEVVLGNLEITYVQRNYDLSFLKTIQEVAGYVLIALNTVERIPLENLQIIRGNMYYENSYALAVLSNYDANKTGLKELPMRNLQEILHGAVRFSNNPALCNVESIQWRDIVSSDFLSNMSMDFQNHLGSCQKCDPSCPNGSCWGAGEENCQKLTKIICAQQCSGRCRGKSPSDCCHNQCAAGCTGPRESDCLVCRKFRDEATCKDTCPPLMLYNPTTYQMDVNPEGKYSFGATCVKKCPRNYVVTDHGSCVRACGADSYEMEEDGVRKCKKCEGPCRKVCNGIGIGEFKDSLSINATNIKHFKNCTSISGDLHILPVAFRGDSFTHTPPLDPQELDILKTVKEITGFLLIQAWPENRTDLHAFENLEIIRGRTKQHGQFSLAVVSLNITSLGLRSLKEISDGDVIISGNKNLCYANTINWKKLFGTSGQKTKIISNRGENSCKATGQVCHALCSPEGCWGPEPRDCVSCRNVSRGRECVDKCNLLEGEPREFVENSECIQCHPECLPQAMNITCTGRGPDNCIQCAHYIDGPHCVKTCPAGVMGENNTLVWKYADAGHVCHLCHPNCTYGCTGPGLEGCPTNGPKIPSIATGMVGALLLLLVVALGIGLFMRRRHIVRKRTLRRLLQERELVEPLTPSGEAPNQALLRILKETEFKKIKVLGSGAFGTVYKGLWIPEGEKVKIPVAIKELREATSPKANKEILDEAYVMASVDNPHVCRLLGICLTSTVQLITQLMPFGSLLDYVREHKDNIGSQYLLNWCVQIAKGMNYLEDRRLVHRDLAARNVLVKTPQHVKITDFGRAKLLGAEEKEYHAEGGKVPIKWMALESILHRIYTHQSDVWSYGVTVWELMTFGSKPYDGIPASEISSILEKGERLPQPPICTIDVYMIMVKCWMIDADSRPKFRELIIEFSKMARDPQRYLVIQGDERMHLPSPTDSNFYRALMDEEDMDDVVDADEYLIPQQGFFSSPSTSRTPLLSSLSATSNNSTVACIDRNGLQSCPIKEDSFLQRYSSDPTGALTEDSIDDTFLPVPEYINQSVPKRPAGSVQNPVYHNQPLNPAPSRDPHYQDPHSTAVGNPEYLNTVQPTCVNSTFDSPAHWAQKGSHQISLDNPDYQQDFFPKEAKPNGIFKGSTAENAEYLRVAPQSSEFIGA
Description: as §1, §2, §3

EGFR Exon19Del/T790M = biological target: T3, EGFR Exon19Del/T790M (Homo sapiens, UniProt P00533, DEL746-750/T790M); experiment: Inhibition of EGFR Exon19Del/T790M biochemical enzymatic activity (HTRF); conditions: EGFR Exon19Del/T790M, 1 mM ATP, 1 h at room temperature, read-out: IC50 @Del19-T790M
T3 construct: purchased Carna Bio
T3 sequence (P00533 with tags, fused parts or gaps DEL746-750/T790M limits assumed): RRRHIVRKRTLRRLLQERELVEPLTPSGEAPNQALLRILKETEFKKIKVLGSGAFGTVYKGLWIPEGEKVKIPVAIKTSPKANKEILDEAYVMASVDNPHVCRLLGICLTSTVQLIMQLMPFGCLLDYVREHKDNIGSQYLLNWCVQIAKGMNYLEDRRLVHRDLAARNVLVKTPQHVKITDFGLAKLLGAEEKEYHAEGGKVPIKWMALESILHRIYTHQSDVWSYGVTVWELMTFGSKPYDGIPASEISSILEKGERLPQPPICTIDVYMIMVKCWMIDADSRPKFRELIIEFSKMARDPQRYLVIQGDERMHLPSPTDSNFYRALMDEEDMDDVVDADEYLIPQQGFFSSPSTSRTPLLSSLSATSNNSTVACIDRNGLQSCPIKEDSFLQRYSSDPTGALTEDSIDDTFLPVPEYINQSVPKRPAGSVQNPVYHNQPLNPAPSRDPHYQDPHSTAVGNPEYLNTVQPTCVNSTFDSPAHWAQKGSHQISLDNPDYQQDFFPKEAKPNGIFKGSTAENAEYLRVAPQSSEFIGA
Description: as §1, §2, §3

EGFR L858R/T790M = biological target: T4, EGFR L858R/T790M (Homo sapiens, UniProt P00533, L858R/T790M); experiment: Inhibition of EGFR L858R/T790M biochemical enzymatic activity (HTRF); conditions: EGFR L858R/T790M, 1 mM ATP, 1 h at room temperature, read-out: IC50 @L858R-T790M
T4 construct: purchased Carna Bio
T4 sequence (P00533 25-1210 T790M/L858R): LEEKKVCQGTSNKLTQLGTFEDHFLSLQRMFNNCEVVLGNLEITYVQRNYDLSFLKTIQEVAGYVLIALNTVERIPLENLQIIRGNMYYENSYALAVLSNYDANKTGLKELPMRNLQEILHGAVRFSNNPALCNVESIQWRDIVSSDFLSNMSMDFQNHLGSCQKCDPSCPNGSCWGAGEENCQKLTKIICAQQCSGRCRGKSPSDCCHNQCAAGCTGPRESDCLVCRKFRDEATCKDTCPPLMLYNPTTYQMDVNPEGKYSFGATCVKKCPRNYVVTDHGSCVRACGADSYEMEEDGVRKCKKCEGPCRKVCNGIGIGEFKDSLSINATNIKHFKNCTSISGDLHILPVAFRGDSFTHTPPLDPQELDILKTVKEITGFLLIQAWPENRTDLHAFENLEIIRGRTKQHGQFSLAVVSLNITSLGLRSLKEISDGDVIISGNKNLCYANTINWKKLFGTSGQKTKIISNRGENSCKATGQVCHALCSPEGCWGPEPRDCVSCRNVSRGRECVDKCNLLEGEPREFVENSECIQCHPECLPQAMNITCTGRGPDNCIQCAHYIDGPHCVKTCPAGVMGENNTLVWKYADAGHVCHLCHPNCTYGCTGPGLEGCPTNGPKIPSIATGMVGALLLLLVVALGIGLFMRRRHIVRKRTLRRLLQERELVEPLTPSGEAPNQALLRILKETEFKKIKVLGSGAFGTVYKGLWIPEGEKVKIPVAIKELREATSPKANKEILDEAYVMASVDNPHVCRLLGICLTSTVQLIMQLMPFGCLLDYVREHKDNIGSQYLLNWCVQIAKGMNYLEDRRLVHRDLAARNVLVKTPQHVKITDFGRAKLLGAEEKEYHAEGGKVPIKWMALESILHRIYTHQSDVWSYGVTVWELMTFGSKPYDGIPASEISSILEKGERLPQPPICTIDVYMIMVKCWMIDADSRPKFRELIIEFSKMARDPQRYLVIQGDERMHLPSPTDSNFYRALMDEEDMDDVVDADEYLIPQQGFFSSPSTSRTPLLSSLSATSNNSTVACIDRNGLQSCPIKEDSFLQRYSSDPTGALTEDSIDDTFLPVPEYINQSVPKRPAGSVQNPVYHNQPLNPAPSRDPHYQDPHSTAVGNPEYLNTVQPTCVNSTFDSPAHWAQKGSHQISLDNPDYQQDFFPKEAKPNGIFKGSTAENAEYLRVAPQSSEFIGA
Description: as §1, §2, §3

PC-9 = experiment: Cell proliferation assay, PC-9 cells (CellTiter-Glo, 72 hours); assay type: cell-based; conditions: PC9 cells, read-out: GI50 PC9
Outline: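 Ba/F3 cells (5000/well) and PC-9 cells (500/well, RPMI1640 with 10% FBS) were plated overnight and then dosed with a compound concentration series. Viable cells were read at day 0 (G0) and after treatment (G3). GI50 came from curve fits of G0-corrected proliferation relative to DMSO.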

EGFR L858R = biological target: T5, EGFR L858R (Homo sapiens, UniProt P00533, L858R); experiment: Inhibition of EGFR L858R biochemical enzymatic activity (HTRF); conditions: 1 mM ATP, 1 h at room temperature, read-out: IC50 @L858R
T5 construct: purchased Carna Bio
Description: as §1, §2, §3

[1] = test system: Ba/F3 cells expressing EGFR mutations; experiment: Cell proliferation assay, Ba/F3 cells expressing EGFR mutations (CellTiter-Glo, 72 hours); assay type: cell-based
Description: Biological Example 2: Cell Proliferation Assays
Ba/F3 cells expressing EGFR mutations were seeded in 384-well plates at 5000 cells/well in RPMI1640 medium containing […]. PC-9 at 500 cells/well was seeded into 384-well plates in RPMI1640 medium with 10% FBS. After overnight incubation, the assay plates were dosed with compounds at a series of concentrations. Alongside dosing the assay plates, the day 0 plate was processed using CellTiter-Glo® Luminescent Cell Viability Assay (Promega) to measure the number of viable cells (G0). The assay plates were further incubated for 72 hours and the number of viable cells (G3) was measured. The percentage of proliferation was calculated as: […]=100×(G3 value of sample well−G0 value)/(G3 value of DMSO control−G0 value). The concentration of compound producing 50% proliferation inhibition (GI50) was further calculated in best-fit curves using XLFit software. N/A=not available.

[2] = biological target: T6, EGFR[T790M/C797S/d746-750] (Homo sapiens, UniProt P00533, C797S/DEL746-750/T790M); experiment: Inhibition of EGFR[T790M/C797S/d746-750] biochemical enzymatic activity (HTRF); conditions: EGFR[T790M/C797S/d746-750], 1 mM ATP, 1 h at room temperature, read-out: IC50 @T790M - C797S - Del19
T6 construct: purchased Carna Bio
Description: as §1, §2, §3

EGFR Exon19Del = biological target: T7, EGFR Exon19Del (Homo sapiens, UniProt P00533, DEL746-750); experiment: Inhibition of EGFR Exon19Del biochemical enzymatic activity (HTRF); conditions: EGFR Exon19Del, 1 mM ATP, 1 h at room temperature, read-out: IC50 @Del19
T7 construct: purchased Carna Bio
Description: as §1, §2, §3

EGFR wild type = biological target: T8, EGFR wild type (Homo sapiens, UniProt P00533); experiment: Inhibition of EGFR wild type biochemical enzymatic activity (HTRF); conditions: EGFR wild type, 1 mM ATP, 1 h at room temperature, read-out: IC50 @WT
T8 construct: purchased Carna Bio
T8 sequence (P00533 25-1210): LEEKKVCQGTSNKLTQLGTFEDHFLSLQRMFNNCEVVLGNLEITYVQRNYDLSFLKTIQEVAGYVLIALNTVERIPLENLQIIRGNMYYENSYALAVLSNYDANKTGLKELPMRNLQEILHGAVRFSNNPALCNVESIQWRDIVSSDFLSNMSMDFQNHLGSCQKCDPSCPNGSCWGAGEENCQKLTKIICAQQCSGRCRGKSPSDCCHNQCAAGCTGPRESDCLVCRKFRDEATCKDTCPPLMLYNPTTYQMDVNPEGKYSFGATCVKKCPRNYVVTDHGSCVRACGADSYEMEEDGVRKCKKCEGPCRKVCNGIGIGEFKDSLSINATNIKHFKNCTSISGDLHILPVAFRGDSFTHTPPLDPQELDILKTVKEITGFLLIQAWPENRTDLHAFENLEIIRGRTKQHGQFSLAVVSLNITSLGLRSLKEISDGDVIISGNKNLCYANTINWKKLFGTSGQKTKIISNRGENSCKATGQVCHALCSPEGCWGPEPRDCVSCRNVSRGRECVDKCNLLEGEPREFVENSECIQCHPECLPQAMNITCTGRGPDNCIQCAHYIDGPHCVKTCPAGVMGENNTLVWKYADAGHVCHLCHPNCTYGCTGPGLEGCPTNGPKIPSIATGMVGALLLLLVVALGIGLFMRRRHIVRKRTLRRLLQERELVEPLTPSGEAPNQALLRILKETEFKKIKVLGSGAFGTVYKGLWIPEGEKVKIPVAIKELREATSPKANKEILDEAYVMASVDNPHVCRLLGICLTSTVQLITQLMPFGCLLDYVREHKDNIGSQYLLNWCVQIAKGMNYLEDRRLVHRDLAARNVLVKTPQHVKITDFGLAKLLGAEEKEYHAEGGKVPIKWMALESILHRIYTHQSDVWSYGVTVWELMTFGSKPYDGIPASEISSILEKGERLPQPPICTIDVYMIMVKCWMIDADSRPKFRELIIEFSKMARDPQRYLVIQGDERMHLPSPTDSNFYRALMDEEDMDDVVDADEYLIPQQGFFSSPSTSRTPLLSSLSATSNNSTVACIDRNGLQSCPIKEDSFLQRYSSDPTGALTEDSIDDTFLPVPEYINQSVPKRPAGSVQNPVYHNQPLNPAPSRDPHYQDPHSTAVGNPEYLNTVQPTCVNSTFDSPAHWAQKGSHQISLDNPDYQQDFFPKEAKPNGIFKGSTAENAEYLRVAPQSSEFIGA
Description: as §1, §2, §3

EGFR (d746-750 C797S) = biological target: T9, EGFR (d746-750 C797S) (Homo sapiens, UniProt P00533, C797S/DEL746-750); experiment: Inhibition of EGFR (d746-750 C797S) biochemical enzymatic activity (HTRF); conditions: EGFR (d746-750 C797S), 1 mM ATP, 1 h at room temperature, read-out: IC50 @Del19-C797S
T9 construct: purchased signalchem
T9 sequence (P00533 with tags, fused parts or gaps DEL746-750/C797S limits assumed): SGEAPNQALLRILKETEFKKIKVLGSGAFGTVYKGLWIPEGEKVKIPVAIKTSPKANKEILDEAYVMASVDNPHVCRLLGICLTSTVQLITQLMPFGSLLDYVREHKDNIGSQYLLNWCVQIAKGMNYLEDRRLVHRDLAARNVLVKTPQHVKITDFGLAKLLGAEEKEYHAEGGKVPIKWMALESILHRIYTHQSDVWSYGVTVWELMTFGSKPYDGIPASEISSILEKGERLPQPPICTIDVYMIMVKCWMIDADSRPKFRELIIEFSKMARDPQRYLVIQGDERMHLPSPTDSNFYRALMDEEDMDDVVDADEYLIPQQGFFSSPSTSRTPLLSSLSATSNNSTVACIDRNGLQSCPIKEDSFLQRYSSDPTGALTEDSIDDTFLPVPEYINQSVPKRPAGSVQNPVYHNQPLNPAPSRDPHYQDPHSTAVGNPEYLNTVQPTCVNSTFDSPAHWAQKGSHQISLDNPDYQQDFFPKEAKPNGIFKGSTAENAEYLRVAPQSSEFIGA
Description: as §1, §2, §3

[3] = BaF3 cells, EGFR DEL19 - C797S, read-out: GI50 DEL19 - C797S/BaF3
[4] = BaF3 cells, EGFR DEL19 - T790-C797S, read-out: GI50 DEL19 - T790-C797S/BaF3
[5] = BaF3 cells, EGFR L858R - C797S, read-out: GI50 L858R - C797S/BaF3
[6] = BaF3 cells, EGFR L858R - T790-C797S, read-out: GI50 L858R - T790-C797S/BaF3
[7] = BaF3 cells, EGFR L858R - T790M, read-out: GI50 L858R - T790M/BaF3
[8] = BaF3 cells, EGFR L858R, read-out: GI50 L858R/BaF3
[9] = EGFR DEL19 - T790M, read-out: GI50 DEL19 - T790M

Row | IC50 (EGFR[T790M/C797S/L858R]) [nM] | IC50 (EGFR (C797S L858R)) [nM] | IC50 (EGFR Exon19Del/T790M) [nM] | IC50 (EGFR L858R/T790M) [nM] | GI50 (PC-9) [nM] | IC50 (EGFR L858R) [nM] | GI50 [1, 3] [nM] | GI50 [1, 4] [nM] | GI50 [1, 5] [nM] | GI50 [1, 6] [nM] | GI50 [1, 7] [nM] | GI50 [1, 8] [nM] | GI50 [1, 9] [nM] | IC50 [2] [nM] | IC50 (EGFR Exon19Del) [nM] | IC50 (EGFR wild type) [nM] | IC50 (EGFR (d746-750 C797S)) [nM] | Structure (SMILES)
1 | 2.4 | 8 | 5.8 | 5.6 | 6 | 17 | 2 | 2 | 3 | 2 | 2 | 2 | 2 | 3.5 | 8 | 76 | 3.8 | Cc1cc2cc(n1)-c1cnn(C)c1OCCN1CC3CCC(C3)(C1)n1c(nc3ccc(N4CCC(N5CCN(C)CC5)C4)cc31)NC2=O (single isomer, unassigned) [Example B49B]
2 | > 5000 | > 5000 | 3620 | > 5000 | 2800 | > 5000 | 239 | 363 | 10000 | 48 | 10000 | 2850 | 10000 | 1290 | > 5000 | > 5000 | > 5000 | Cc1cc2cc(n1)-c1cnn(C)c1OCCN1CC3CCC(C3)(C1)n1c(nc3ccc(N(C)CCCN(C)C)cc31)NC2=O (single isomer, unassigned) [Example B45A]
